Results taken from patent publication EP4582423A1, “NOVEL TRICYCLIC DERIVATIVE COMPOUND AND USES THEREOF” (Hanmi Pharm. Co., Ltd., priority 2022, dated 2024).

What follows are compounds tested on HCT116 MTAP-/- cells (assay: Cell growth inhibition test (SRB staining)). Conditions: HCT116 MTAP-/- cells, 0.64 nM - 2,000 nM, 6 dose points, 6 days, SRB staining, absorbance at 540 nm; read-out: HCT116 MTAP-/- cell growth inhibition (GI50).
Type: cell-based
Experimental: The synthetic compounds above were tested for cell growth inhibition against HCT116 cells.
HCT116 MTAP-/- (homozygous knockout of MTAP gene in HCT116 MTAP-WT cells by CRISPER/Cas9 method) cells were maintained in RPMI1640 medium containing 10 % FBS and 1 % penicillin-streptomycin. Approximately 5×10^2 cells were seeded in a 96-well plate and treated with a test compound. (0.64 nM - 2,000 nM, 6 dose points for HCT116 MTAP-/- cells for 5x and 6 days) cell growth was measured by SRB staining and absorbance was detected at 540 nm on a Synergy™ NEO microplate reader. The 50 % growth inhibition value (GI50) of the cell line was calculated using GraphPad Prism V9 software.

| GI50 [nM] | Compound |
| --- | --- |
| < 100 | 7-chloro-2-(4-methoxyphenyl)-1-methyl-5-(o-tolyl)-1,5-dihydro-4H-imidazo[4,5-c]quinolin-4-one [Compound 10] |

Same assay, conditions: Homo sapiens, HCT-116, 144 h; HCT116 MTAP-/- cells, 0.64 nM - 2,000 nM, 6 dose points, 6 days, SRB staining, absorbance at 540 nm; read-out: HCT116 MTAP-/- cell growth inhibition (GI50)

| Compound | GI50 [nM] |
| --- | --- |
| Cc1ncccc1-n1c(=O)c2nc(Cc3ccc(OC(F)F)cc3)n(C)c2c2ccc(Cl)cc21 [Compound 33, 7-chloro-2-(4-(difluoromethoxy)benzyl)-1-methyl-5-(2-methylpyridin-3-yl)-1,5-dihydro-4H-imidazo[4,5-c]quinolin-4-one] | < 100 |
| COc1ccc(Sc2nc3c(=O)n(-c4ccccc4)c4cc(Cl)ccc4c3n2C)cc1 [Compound 18, 7-chloro-2-((4-methoxyphenyl)thio)-1-methyl-5-phenyl-1,5-dihydro-4H-imidazo[4,5-c]quinolin-4-one] | < 100 |
| Cn1c(CCc2ccccc2)nc2c(=O)n(-c3ccccc3)c3cc(Cl)ccc3c21 [Compound 9, 7-chloro-1-methyl-2-phenethyl-5-phenyl-1,5-dihydro-4H-imidazo[4,5-c]quinolin-4-one] | > 1000 |
| COc1ccc(Cc2nc3c(=O)n(-c4ccc(Cl)c(F)c4)c4cc(Cl)ccc4c3n2C)cc1 [Compound 16, 7-chloro-5-(4-chloro-3-fluorophenyl)-2-(4-methoxybenzyl)-1-methyl-1,5-dihydro-4H-imidazo[4,5-c]quinolin-4-one] | > 1000 |
| O=c1c2nc(Cc3ccccc3)[nH]c2c2ccc(Cl)cc2n1-c1ccccc1 [Compound 11, 2-benzyl-7-chloro-5-phenyl-1,5-dihydro-4H-imidazo[4,5-c]quinolin-4-one] | 500 to 1000 |
| COc1ccc(Cc2nc3c(=O)n(-c4cccnc4C)c4cc(O)ccc4c3n2C)cc1 [Compound 43, 7-Hydroxy-2-(4-methoxybenzyl)-1-methyl-5-(2-methylpyridin-3-yl)-1,5-dihydro-4H-imidazo[4,5-c]quinolin-4-one] | > 1000 |
| COc1ccc(Cc2nc3c(=O)n(-c4cccnc4C(F)(F)F)c4cc(Cl)ccc4c3n2C)cc1 [Compound 23, 7-chloro-2-(4-methoxybenzyl)-1-methyl-5-(2-(trifluoromethyl)pyridin-3-yl)-1,5-dihydro-4H-imidazo[4,5-c]quinolin-4-one] | 100 to 500 |
| CNc1ccc2c3c(nc(Cc4ccc(OC)cc4)n3C)c(=O)n(-c3cccnc3C)c2c1 [Compound 53, 2-(4-methoxybenzyl)-1-methyl-7-(methylamino)-5-(2-methylpyridin-3-yl)-1,5-dihydro-4H-imidazo[4,5-c]quinolin-4-one] | < 100 |
| COc1ccc(Cc2nc3c(=O)n(-c4cccnc4C)c4nc(OC)ccc4c3n2C)cc1 [Compound 64, 7-methoxy-2-(4-methoxybenzyl)-1-methyl-5-(2-methylpyridin-3-yl)-1,5-dihydro-4H-imidazo[4,5-c][1,8]naphthyridin-4-one] | < 100 |
| Cn1c(Cn2ccnc2)nc2c(=O)n(-c3ccccc3)c3cc(Cl)ccc3c21 [Compound 12, 2-((1H-imidazol-1-yl)methyl)-7-chloro-1-methyl-5-phenyl-1,5-dihydro-4H-imidazo[4,5-c]quinolin-4-one] | > 1000 |
| Cc1ncccc1-n1c(=O)c2nc(Sc3ccc(F)cc3)n(C)c2c2ccc(Cl)cc21 [Compound 36, 7-chloro-2-((4-fluorophenyl)thio)-1-methyl-5-(2-methylpyridin-3-yl)-1,5-dihydro-4H-imidazo[4,5-c]quinolin-4-one] | < 100 |
| COc1ccc([S+]([O-])c2nc3c(=O)n(-c4ccccc4)c4cc(Cl)ccc4c3n2C)cc1 (stereo not drawn) [Compound 20, 7-chloro-2-((4-methoxyphenyl)sulfinyl)-1-methyl-5-phenyl-1,5-dihydro-4H-imidazo[4,5-c]quinolin-4-one] | 500 to 1000 |
| COc1ccc(S(=O)(=O)c2nc3c(=O)n(-c4ccccc4)c4cc(Cl)ccc4c3n2C)cc1 [Compound 19, 7-chloro-2-((4-methoxyphenyl)sulfonyl)-1-methyl-5-phenyl-1,5-dihydro-4H-imidazo[4,5-c]quinolin-4-one] | 500 to 1000 |
| COc1ccc(Cc2nc3c(=O)n(-c4ccccc4)c4nc(NCC(F)(F)F)ccc4c3n2C)cc1 [Compound 15, 2-(4-methoxybenzyl)-1-methyl-5-phenyl-7-((2,2,2-trifluoroethyl)amino)-1,5-dihydro-4H-imidazo[4,5-c][1,8]naphthyridin-4-one] | > 1000 |
| COc1ccc(Cc2nc3c(=O)n(-c4ccc(F)c(Cl)c4)c4cc(Cl)ccc4c3n2C)cc1 [Compound 17, 7-chloro-5-(3-chloro-4-fluorophenyl)-2-(4-methoxybenzyl)-1-methyl-1,5-dihydro-4H-imidazo[4,5-c]quinolin-4-one] | > 1000 |
| C=Cc1ccc2c3c(nc(Cc4ccc(OC)cc4)n3C)c(=O)n(-c3cccnc3C)c2c1 [Compound 44, 2-(4-methoxybenzyl)-1-methyl-5-(2-methylpyridin-3-yl)-7-vinyl-1,5-dihydro-4H-imidazo[4,5-c]quinolin-4-one] | < 100 |
| Cn1c(Cc2ccncc2)nc2c(=O)n(-c3ccccc3)c3cc(Cl)ccc3c21 [Compound 7, 7-chloro-1-methyl-5-phenyl-2-(pyridin-4-ylmethyl)-1,5-dihydro-4H-imidazo[4,5-c]quinolin-4-one] | > 1000 |
| COc1ccc(Nc2nc3c(=O)n(-c4ccccc4)c4cc(Cl)ccc4c3n2C)cc1 [Compound 40, 7-chloro-2-((4-methoxyphenyl)amino)-1-methyl-5-phenyl-1,5-dihydro-4H-imidazo[4,5-c]quinolin-4-one] | > 1000 |
| Cc1ncccc1-n1c(=O)c2nc(Cc3ccc(F)c(F)c3)n(C)c2c2ccc(Cl)cc21 [Compound 30, 7-chloro-2-(3,4-difluorobenzyl)-1-methyl-5-(2-methylpyridin-3-yl)-1,5-dihydro-4H-imidazo[4,5-c]quinolin-4-one] | < 100 |
| COc1ccc(Cc2nc3c(=O)n(-c4ccccc4Cl)c4cc(Cl)ccc4c3n2C)cc1 [Compound 26, 7-chloro-5-(2-chlorophenyl)-2-(4-methoxybenzyl)-1-methyl-1,5-dihydro-4H-imidazo[4,5-c]quinolin-4-one] | 100 to 500 |

The remaining lines, values ahead:

| GI50 [nM] | Compound |
| --- | --- |
| < 100 | COc1ccc(Cc2nc3c(=O)n(-c4cccnc4C)c4cc(Cl)ccc4c3n2C)cc1 [Compound 21, 7-chloro-2-(4-methoxybenzyl)-1-methyl-5-(2-methylpyridin-3-yl)-1,5-dihydro-4H-imidazo[4,5-c]quinolin-4-one] |
| > 1000 | Cn1c(Cc2ccc(O)cc2)nc2c(=O)n(-c3ccccc3)c3cc(Cl)ccc3c21 [Compound 3, 7-chloro-2-(4-hydroxybenzyl)-1-methyl-5-phenyl-1,5-dihydro-4H-imidazo[4,5-c]quinolin-4-one] |
| < 100 | COc1ccc(Sc2nc3c(=O)n(-c4cccnc4C)c4cc(Cl)ccc4c3n2C)cc1 [Compound 35, 7-chloro-2-((4-methoxyphenyl)thio)-1-methyl-5-(2-methylpyridin-3-yl)-1,5-dihydro-4H-imidazo[4,5-c]quinolin-4-one] |
| 100 to 500 | Cc1ncccc1-n1c(=O)c2nc(Sc3ccc(F)cc3)n(C)c2c2ccc(C(F)(F)F)nc21 [Compound 60, 2-((4-fluorophenyl)thio)-1-methyl-5-(2-methylpyridin-3-yl)-7-(trifluoromethyl)-1,5-dihydro-4H-imidazo[4,5-c][1,8]naphthyridin-4-one] |
| < 100 | COc1ccc(Cc2nc3c(=O)n(-c4cccnc4C)c4nc(C(F)(F)F)ccc4c3n2C)cc1 [Compound 57, 2-(4-methoxybenzyl)-1-methyl-5-(2-methylpyridin-3-yl)-7-(trifluoromethyl)-1,5-dihydro-4H-imidazo[4,5-c][1,8]naphthyridin-4-one] |
| 100 to 500 | COc1ccc(Cc2nc3c(=O)n(-c4cccnc4C4CC4)c4cc(Cl)ccc4c3n2C)cc1 [Compound 24, 7-chloro-5-(2-cyclopropylpyridin-3-yl)-2-(4-methoxybenzyl)-1-methyl-1,5-dihydro-4H-imidazo[4,5-c]quinolin-4-one] |
| < 100 | CCc1ccc2c3c(nc(Cc4ccc(OC)cc4)n3C)c(=O)n(-c3cccnc3C)c2c1 [Compound 45, 7-Ethyl-2-(4-methoxybenzyl)-1-methyl-5-(2-methylpyridin-3-yl)-1,5-dihydro-4H-imidazo[4,5-c]quinolin-4-one] |
| < 100 | COc1ccc(Cc2nc3c(=O)n(-c4cccnc4C)c4cc(C5CC5)ccc4c3n2C)cc1 [Compound 46, 7-Cyclopropyl-2-(4-methoxybenzyl)-1-methyl-5-(2-methylpyridin-3-yl)-1,5-dihydro-4H-imidazo[4,5-c]quinolin-4-one] |
| 500 to 1000 | COc1ccc(Cc2nc3c(=O)n(-c4cccnc4C)c4cc(N)ccc4c3n2C)cc1 [Compound 52, 7-amino-2-(4-methoxybenzyl)-1-methyl-5-(2-methylpyridin-3-yl)-1,5-dihydro-4H-imidazo[4,5-c]quinolin-4-one] |
| < 100 | Cc1ncccc1-n1c(=O)c2nc(Sc3ccc(F)c(F)c3)n(C)c2c2ccc(Cl)cc21 [Compound 37, 7-chloro-2-((3,4-difluorophenyl)thio)-1-methyl-5-(2-methylpyridin-3-yl)-1,5-dihydro-4H-imidazo[4,5-c]quinolin-4-one] |
| < 100 | Cc1ncccc1-n1c(=O)c2nc(Cc3ccc4c(c3)OCO4)n(C)c2c2ccc(Cl)cc21 [Compound 29, 2-(benzo[d][1,3]dioxol-5-ylmethyl)-7-chloro-1-methyl-5-(2-methylpyridin-3-yl)-1,5-dihydro-4H-imidazo[4,5-c]quinolin-4-one] |
| > 1000 | COc1ccc(Oc2nc3c(=O)n(-c4ccccc4)c4cc(Cl)ccc4c3n2C)cc1 [Compound 42, 7-chloro-2-(4-methoxyphenoxy)-1-methyl-5-phenyl-1,5-dihydro-4H-imidazo[4,5-c]quinolin-4-one] |
